System: Detoxification protein genes
Test: DNA chip mRNA expression in yeast, detoxification protein genes (Table 8)
Assay type: cell-based, Saccharomyces cerevisiae S288C
How it was run: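 In this screen, yeast in logarithmic growth are challenged for two hours with a toxic substance at a non-lethal inhibitory concentration. Their mRNA, converted to Cy3- or Cy5-labeled cDNA, hybridizes at 65° C. to a chip spanning every yeast gene, and expression is expressed as a ratio to untreated cells.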

Q: Which “The level of expressed mRNA in the presence of chemical substance/The level of expressed mRNA in the absence of chemical substance” value (yeast gene YBL064C) does the source give for CCCCCCCCCCCCOS(=O)(=O)[O-].[Na+] [(18), sodium lauryl sulfate] here?
A: Its value is 2.3.

Q: And the “The level of expressed mRNA in the presence of chemical substance/The level of expressed mRNA in the absence of chemical substance” value (yeast gene YBR008C)?
A: Its value is 1.2.

Q: And the “The level of expressed mRNA in the presence of chemical substance/The level of expressed mRNA in the absence of chemical substance” value (yeast gene YBR145W)?
A: Its value is 2.0.

Q: And the “The level of expressed mRNA in the presence of chemical substance/The level of expressed mRNA in the absence of chemical substance” value (yeast gene YBR244W)?
A: Its value is 1.2.

Q: And the “The level of expressed mRNA in the presence of chemical substance/The level of expressed mRNA in the absence of chemical substance” value (yeast gene YBR293W)?
A: Its value is 0.9.

Q: What about the “The level of expressed mRNA in the presence of chemical substance/The level of expressed mRNA in the absence of chemical substance” value (yeast gene YCL035C) of the same compound?
A: The value was 4.2.

Q: And the “The level of expressed mRNA in the presence of chemical substance/The level of expressed mRNA in the absence of chemical substance” value (yeast gene YCL069W)?
A: Its value is 1.0.

Q: And the “The level of expressed mRNA in the presence of chemical substance/The level of expressed mRNA in the absence of chemical substance” value (yeast gene YCR083W)?
A: Its value is 1.3.

Q: And the “The level of expressed mRNA in the presence of chemical substance/The level of expressed mRNA in the absence of chemical substance” value (yeast gene YDL100C)?
A: Its value is 1.4.

Q: What about the “The level of expressed mRNA in the presence of chemical substance/The level of expressed mRNA in the absence of chemical substance” value (yeast gene YDL168W) of the same compound?
A: Its value is 0.8.

Q: And the “The level of expressed mRNA in the presence of chemical substance/The level of expressed mRNA in the absence of chemical substance” value (yeast gene YDR256C)?
A: Its value is 2.0.

Q: And the “The level of expressed mRNA in the presence of chemical substance/The level of expressed mRNA in the absence of chemical substance” value (yeast gene YDR453C)?
A: Its value is 1.5.

Q: And the “The level of expressed mRNA in the presence of chemical substance/The level of expressed mRNA in the absence of chemical substance” value (yeast gene YDR513W)?
A: Its value is 3.2.

Q: And the “The level of expressed mRNA in the presence of chemical substance/The level of expressed mRNA in the absence of chemical substance” value (yeast gene YDR538W)?
A: The value was 0.9.

Q: And the “The level of expressed mRNA in the presence of chemical substance/The level of expressed mRNA in the absence of chemical substance” value (yeast gene YEL027W)?
A: Its value is 1.4.

Q: And the “The level of expressed mRNA in the presence of chemical substance/The level of expressed mRNA in the absence of chemical substance” value (yeast gene YEL065W)?
A: Its value is 0.6.

Q: And the “The level of expressed mRNA in the presence of chemical substance/The level of expressed mRNA in the absence of chemical substance” value (yeast gene YER185W)?
A: The value was 1.1.

Q: What about the “The level of expressed mRNA in the presence of chemical substance/The level of expressed mRNA in the absence of chemical substance” value (yeast gene YFL050C) of the same compound?
A: The value was 1.0.

Q: And the “The level of expressed mRNA in the presence of chemical substance/The level of expressed mRNA in the absence of chemical substance” value (yeast gene YGL013C)?
A: The value was 1.0.

Q: And the “The level of expressed mRNA in the presence of chemical substance/The level of expressed mRNA in the absence of chemical substance” value (yeast gene YGL254W)?
A: The value was 1.2.

Q: What about the “The level of expressed mRNA in the presence of chemical substance/The level of expressed mRNA in the absence of chemical substance” value (yeast gene YGR088W) of the same compound?
A: The value was 2.0.

Q: And the “The level of expressed mRNA in the presence of chemical substance/The level of expressed mRNA in the absence of chemical substance” value (yeast gene YGR138C)?
A: The value was 0.7.

Q: What about the “The level of expressed mRNA in the presence of chemical substance/The level of expressed mRNA in the absence of chemical substance” value (yeast gene YGR197C) of the same compound?
A: Its value is 1.9.

Q: And the “The level of expressed mRNA in the presence of chemical substance/The level of expressed mRNA in the absence of chemical substance” value (yeast gene YGR209C)?
A: Its value is 2.4.

Q: And the “The level of expressed mRNA in the presence of chemical substance/The level of expressed mRNA in the absence of chemical substance” value (yeast gene YGR224W)?
A: Its value is 1.3.

Q: And the “The level of expressed mRNA in the presence of chemical substance/The level of expressed mRNA in the absence of chemical substance” value (yeast gene YHL040C)?
A: Its value is 1.0.

Q: And the “The level of expressed mRNA in the presence of chemical substance/The level of expressed mRNA in the absence of chemical substance” value (yeast gene YHL047C)?
A: Its value is 1.2.

Q: And the “The level of expressed mRNA in the presence of chemical substance/The level of expressed mRNA in the absence of chemical substance” value (yeast gene YHR008C)?
A: The value was 1.0.

Q: And the “The level of expressed mRNA in the presence of chemical substance/The level of expressed mRNA in the absence of chemical substance” value (yeast gene YHR048W)?
A: Its value is 0.9.

Q: What about the “The level of expressed mRNA in the presence of chemical substance/The level of expressed mRNA in the absence of chemical substance” value (yeast gene YHR053C) of the same compound?
A: The value was 0.5.

Q: And the “The level of expressed mRNA in the presence of chemical substance/The level of expressed mRNA in the absence of chemical substance” value (yeast gene YHR055C)?
A: The value was 0.6.

Q: And the “The level of expressed mRNA in the presence of chemical substance/The level of expressed mRNA in the absence of chemical substance” value (yeast gene YIR002C)?
A: The value was 1.2.

Q: What about the “The level of expressed mRNA in the presence of chemical substance/The level of expressed mRNA in the absence of chemical substance” value (yeast gene YIR038C) of the same compound?
A: The value was 2.0.

Q: And the “The level of expressed mRNA in the presence of chemical substance/The level of expressed mRNA in the absence of chemical substance” value (yeast gene YJL101C)?
A: The value was 1.0.

Q: What about the “The level of expressed mRNA in the presence of chemical substance/The level of expressed mRNA in the absence of chemical substance” value (yeast gene YJR104C) of the same compound?
A: The value was 1.1.

Q: And the “The level of expressed mRNA in the presence of chemical substance/The level of expressed mRNA in the absence of chemical substance” value (yeast gene YKL026C)?
A: The value was 3.3.

Q: What about the “The level of expressed mRNA in the presence of chemical substance/The level of expressed mRNA in the absence of chemical substance” value (yeast gene YKL064W) of the same compound?
A: The value was 1.3.

Q: What about the “The level of expressed mRNA in the presence of chemical substance/The level of expressed mRNA in the absence of chemical substance” value (yeast gene YKR066C) of the same compound?
A: The value was 1.1.

Q: And the “The level of expressed mRNA in the presence of chemical substance/The level of expressed mRNA in the absence of chemical substance” value (yeast gene YKR105C)?
A: The value was 1.0.

Q: And the “The level of expressed mRNA in the presence of chemical substance/The level of expressed mRNA in the absence of chemical substance” value (yeast gene YKR106W)?
A: Its value is 0.8.

Q: And the “The level of expressed mRNA in the presence of chemical substance/The level of expressed mRNA in the absence of chemical substance” value (yeast gene YLL028W)?
A: The value was 1.2.

Q: What about the “The level of expressed mRNA in the presence of chemical substance/The level of expressed mRNA in the absence of chemical substance” value (yeast gene YLL057C) of the same compound?
A: Its value is 1.3.

Q: And the “The level of expressed mRNA in the presence of chemical substance/The level of expressed mRNA in the absence of chemical substance” value (yeast gene YLL060C)?
A: Its value is 2.3.

Q: And the “The level of expressed mRNA in the presence of chemical substance/The level of expressed mRNA in the absence of chemical substance” value (yeast gene YLR043C)?
A: Its value is 2.2.

Q: What about the “The level of expressed mRNA in the presence of chemical substance/The level of expressed mRNA in the absence of chemical substance” value (yeast gene YLR046C) of the same compound?
A: The value was 5.4.

Q: What about the “The level of expressed mRNA in the presence of chemical substance/The level of expressed mRNA in the absence of chemical substance” value (yeast gene YML028W) of the same compound?
A: The value was 1.5.

Q: And the “The level of expressed mRNA in the presence of chemical substance/The level of expressed mRNA in the absence of chemical substance” value (yeast gene YML116W)?
A: Its value is 1.0.

Q: What about the “The level of expressed mRNA in the presence of chemical substance/The level of expressed mRNA in the absence of chemical substance” value (yeast gene YMR015C) of the same compound?
A: Its value is 1.0.

Q: And the “The level of expressed mRNA in the presence of chemical substance/The level of expressed mRNA in the absence of chemical substance” value (yeast gene YMR038C)?
A: Its value is 1.3.

Q: And the “The level of expressed mRNA in the presence of chemical substance/The level of expressed mRNA in the absence of chemical substance” value (yeast gene YNL239W)?
A: Its value is 1.4.

Q: And the “The level of expressed mRNA in the presence of chemical substance/The level of expressed mRNA in the absence of chemical substance” value (yeast gene YNL241C)?
A: Its value is 1.0.

Q: And the “The level of expressed mRNA in the presence of chemical substance/The level of expressed mRNA in the absence of chemical substance” value (yeast gene YNL259C)?
A: Its value is 2.4.

Q: What about the “The level of expressed mRNA in the presence of chemical substance/The level of expressed mRNA in the absence of chemical substance” value (yeast gene YOL158C) of the same compound?
A: Its value is 1.7.

Q: And the “The level of expressed mRNA in the presence of chemical substance/The level of expressed mRNA in the absence of chemical substance” value (yeast gene YOR031W)?
A: Its value is 2.4.

Q: And the “The level of expressed mRNA in the presence of chemical substance/The level of expressed mRNA in the absence of chemical substance” value (yeast gene YOR153W)?
A: The value was 3.1.

Q: What about the “The level of expressed mRNA in the presence of chemical substance/The level of expressed mRNA in the absence of chemical substance” value (yeast gene YOR247W) of the same compound?
A: The value was 0.9.

Q: And the “The level of expressed mRNA in the presence of chemical substance/The level of expressed mRNA in the absence of chemical substance” value (yeast gene YOR251C)?
A: The value was 1.3.

Q: What about the “The level of expressed mRNA in the presence of chemical substance/The level of expressed mRNA in the absence of chemical substance” value (yeast gene YOR273C) of the same compound?
A: The value was 3.1.

Q: And the “The level of expressed mRNA in the presence of chemical substance/The level of expressed mRNA in the absence of chemical substance” value (yeast gene YPL163C)?
A: The value was 1.4.

Q: And the “The level of expressed mRNA in the presence of chemical substance/The level of expressed mRNA in the absence of chemical substance” value (yeast gene YPR200C)?
A: The value was 1.0.

From patent US8192962B2, “Processes for detecting toxic substances” (Daikin Industries, Ltd., priority 2001, dated 2012)
